From patent publication US20120029187A1, “HALOALKYLSULFONANILIDE DERIVATIVE” (Nissan Chemical Industries, Ltd., priority 2009, published 2012)

Tests used:
Format in all cases: in vivo
barnyardgrass [1] = assay: Test Example 1: herbicidal effects in preemergence treatment under submerged conditions; settings: dose 2.52 g/a
How it was run: (§1)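 Alluvial soil flooded to 4 cm depth; barnyardgrass, bulrush and ducksalad sown and 2.5-leaf rice seedlings transplanted. Same day, water-diluted emulsifiable concentrates applied to the water surface at set doses (g/a). Kept at 25–30 °C in greenhouse; effects scored 0–5 by mortality after three weeks.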

bulrush [2] = assay: as above; settings: dose 2.52 g/a
How it was run: as §1

ducksalad [3] = assay: as above; settings: dose 2.52 g/a
How it was run: as §1

transplanted rice = assay: Test Example 1: preemergence treatment under submerged conditions, effect on crop; settings: dose 2.52 g/a
How it was run: as §1

barnyardgrass [4] = assay: Test Example 2: herbicidal effects during the vegetation period under submerged conditions; settings: treatment during the vegetation period under submerged conditions; dose 2.52 g/a
How it was run: (§2)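 Barnyardgrass, bulrush and ducksalad were co-sown in alluvial soil flooded to 4 cm and grown in a greenhouse at 25 to 30° C. At the 1- or 2-leaf stage, water-diluted emulsifiable concentrates went onto the water surface at set doses (g/a). Herbicidal effect was scored three weeks later on a graded scale.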

bulrush [5] = assay: as above; settings: treatment during the vegetation period under submerged conditions; dose 2.52 g/a
How it was run: as §2

ducksalad [6] = assay: as above; settings: treatment during the vegetation period under submerged conditions; dose 2.52 g/a
How it was run: as §2

Italian ryegrass [7] = assay: Test Example 3: herbicidal effects in soil treatment; settings: dose 3.2 g/a
How it was run: (§3)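 Seeds were sown in sterilized diluvial soil and covered with about 1.5 cm of soil. Compounds, formulated as emulsifiable concentrates and diluted with water, were sprayed evenly over the soil surface at set doses in g/a. Herbicidal effect was scored on a rating scale three weeks later.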

barnyardgrass [8] = assay: as above; settings: dose 3.2 g/a
How it was run: as §3

common chickweed [9] = assay: as above; settings: dose 3.2 g/a
How it was run: as §3

common lambsquater [10] = assay: as above; settings: dose 3.2 g/a
How it was run: as §3

common ragweed [11] = assay: as above; settings: dose 3.2 g/a
How it was run: as §3

giant foxtail [12] = assay: as above; settings: dose 3.2 g/a
How it was run: as §3

large crabgrass [13] = assay: as above; settings: dose 3.2 g/a
How it was run: as §3

posumbu knotweed [14] = assay: as above; settings: dose 3.2 g/a
How it was run: as §3

redroot pigweed [15] = assay: as above; settings: dose 3.2 g/a
How it was run: as §3

water foxtail [16] = assay: as above; settings: dose 3.2 g/a
How it was run: as §3

Italian ryegrass [17] = assay: Test Example 4: herbicidal effect in foliage treatment; settings: dose 3.2 g/a, three weeks after application
How it was run: (§4)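 A uniform foliar spray of emulsifiable concentrate, diluted with water to give the stated g/a dose, was applied to plants raised for 14 days from seed in sterilized diluvial soil at 25 to 30° C. Herbicidal effects were scored three weeks later.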

barnyardgrass [18] = assay: as above; settings: dose 3.2 g/a, three weeks after application
How it was run: as §4

beadstraw = assay: as above; settings: dose 3.2 g/a, three weeks after application
How it was run: as §4

common chickweed [19] = assay: as above; settings: dose 3.2 g/a, three weeks after application
How it was run: as §4

common lambsquater [20] = assay: as above; settings: dose 3.2 g/a, three weeks after application
How it was run: as §4

common ragweed [21] = assay: as above; settings: dose 3.2 g/a, three weeks after application
How it was run: as §4

giant foxtail [22] = assay: as above; settings: dose 3.2 g/a, three weeks after application
How it was run: as §4

large crabgrass [23] = assay: as above; settings: dose 3.2 g/a, three weeks after application
How it was run: as §4

posumbu knotweed [24] = assay: as above; settings: dose 3.2 g/a, three weeks after application
How it was run: as §4

redroot pigweed [25] = assay: as above; settings: dose 3.2 g/a, three weeks after application
How it was run: as §4

velvetleaf = assay: as above; settings: dose 3.2 g/a, three weeks after application
How it was run: as §4

water foxtail [26] = assay: as above; settings: dose 3.2 g/a, three weeks after application
How it was run: as §4

wild oat = assay: as above; settings: dose 3.2 g/a, three weeks after application
How it was run: as §4

CCOC(=O)N(c1ccccc1CN1COC(c2ccccc2)CC1=O)S(=O)(=O)C(F)(F)F (stereo not drawn) [II-10]
A: barnyardgrass, herbicidal effect (evaluation scale 0-5) (barnyardgrass [1]): 5 (mortality of 90% or above (nearly complete death)) | B: bulrush, herbicidal effect (evaluation scale 0-5) (bulrush [2]): 5 (mortality of 90% or above (nearly complete death)) | C: ducksalad, herbicidal effect (evaluation scale 0-5) (ducksalad [3]): 5 (mortality of 90% or above (nearly complete death)) | a: transplanted rice, effect on crop (evaluation scale 0-5) (transplanted rice): 0 (mortality of less than 5% (almost ineffective)) | A: barnyardgrass, herbicidal effect (evaluation scale 0-5) (barnyardgrass [4]): 4 (mortality of at least 70% and less than 90%) | B: bulrush, herbicidal effect (evaluation scale 0-5) (bulrush [5]): 5 (mortality of 90% or above (nearly complete death)) | C: ducksalad, herbicidal effect (evaluation scale 0-5) (ducksalad [6]): 5 (mortality of 90% or above (nearly complete death)) | H: Italian ryegrass, herbicidal effect (evaluation scale 0-5) (Italian ryegrass [7]): 2 (mortality of at least 20% and less than 40%) | A: barnyardgrass, herbicidal effect (evaluation scale 0-5) (barnyardgrass [8]): 4 (mortality of at least 70% and less than 90%) | N: common chickweed, herbicidal effect (evaluation scale 0-5) (common chickweed [9]): 5 (mortality of 90% or above (nearly complete death)) | L: common lambsquater, herbicidal effect (evaluation scale 0-5) (common lambsquater [10]): 3 (mortality of at least 40% and less than 70%) | J: common ragweed, herbicidal effect (evaluation scale 0-5) (common ragweed [11]): 0 (mortality of less than 5% (almost ineffective)) | E: giant foxtail, herbicidal effect (evaluation scale 0-5) (giant foxtail [12]): 4 (mortality of at least 70% and less than 90%) | D: large crabgrass, herbicidal effect (evaluation scale 0-5) (large crabgrass [13]): 4 (mortality of at least 70% and less than 90%) | M: posumbu knotweed, herbicidal effect (evaluation scale 0-5) (posumbu knotweed [14]): 0 (mortality of less than 5% (almost ineffective)) | K: redroot pigweed, herbicidal effect (evaluation scale 0-5) (redroot pigweed [15]): 0 (mortality of less than 5% (almost ineffective)) | G: water foxtail, herbicidal effect (evaluation scale 0-5) (water foxtail [16]): 5 (mortality of 90% or above (nearly complete death)) | H: Italian ryegrass, herbicidal effect (Italian ryegrass [17]): 1 (mortality of at least 5% and less than 20%) | A: barnyardgrass, herbicidal effect (barnyardgrass [18]): 4 (mortality of at least 70% and less than 90%) | O: beadstraw, herbicidal effect (beadstraw): 3 (mortality of at least 40% and less than 70%) | N: common chickweed, herbicidal effect (common chickweed [19]): 4 (mortality of at least 70% and less than 90%) | L: common lambsquater, herbicidal effect (common lambsquater [20]): 3 (mortality of at least 40% and less than 70%) | J: common ragweed, herbicidal effect (common ragweed [21]): 3 (mortality of at least 40% and less than 70%) | E: giant foxtail, herbicidal effect (giant foxtail [22]): 3 (mortality of at least 40% and less than 70%) | D: large crabgrass, herbicidal effect (large crabgrass [23]): 0 (mortality of less than 5% (almost ineffective)) | M: posumbu knotweed, herbicidal effect (posumbu knotweed [24]): 4 (mortality of at least 70% and less than 90%) | K: redroot pigweed, herbicidal effect (redroot pigweed [25]): 0 (mortality of less than 5% (almost ineffective)) | I: velvetleaf, herbicidal effect (velvetleaf): 4 (mortality of at least 70% and less than 90%) | G: water foxtail, herbicidal effect (water foxtail [26]): 4 (mortality of at least 70% and less than 90%) | F: wild oat, herbicidal effect (wild oat): 0 (mortality of less than 5% (almost ineffective))
